Earlier results, collected in patent US20120245552A1, “Combination Therapy” (POP TEST CORTISOL LLC, priority 2011, published 2012).

Legend:
[1] = system: other related steroidal hormone receptors (such as those for estrogen and progesterone); details: cited from earlier work
GCR = molecular target: T1, GCR (Homo sapiens, UniProt P04150); details: cited from earlier work
T1 sequence (P04150 1-777): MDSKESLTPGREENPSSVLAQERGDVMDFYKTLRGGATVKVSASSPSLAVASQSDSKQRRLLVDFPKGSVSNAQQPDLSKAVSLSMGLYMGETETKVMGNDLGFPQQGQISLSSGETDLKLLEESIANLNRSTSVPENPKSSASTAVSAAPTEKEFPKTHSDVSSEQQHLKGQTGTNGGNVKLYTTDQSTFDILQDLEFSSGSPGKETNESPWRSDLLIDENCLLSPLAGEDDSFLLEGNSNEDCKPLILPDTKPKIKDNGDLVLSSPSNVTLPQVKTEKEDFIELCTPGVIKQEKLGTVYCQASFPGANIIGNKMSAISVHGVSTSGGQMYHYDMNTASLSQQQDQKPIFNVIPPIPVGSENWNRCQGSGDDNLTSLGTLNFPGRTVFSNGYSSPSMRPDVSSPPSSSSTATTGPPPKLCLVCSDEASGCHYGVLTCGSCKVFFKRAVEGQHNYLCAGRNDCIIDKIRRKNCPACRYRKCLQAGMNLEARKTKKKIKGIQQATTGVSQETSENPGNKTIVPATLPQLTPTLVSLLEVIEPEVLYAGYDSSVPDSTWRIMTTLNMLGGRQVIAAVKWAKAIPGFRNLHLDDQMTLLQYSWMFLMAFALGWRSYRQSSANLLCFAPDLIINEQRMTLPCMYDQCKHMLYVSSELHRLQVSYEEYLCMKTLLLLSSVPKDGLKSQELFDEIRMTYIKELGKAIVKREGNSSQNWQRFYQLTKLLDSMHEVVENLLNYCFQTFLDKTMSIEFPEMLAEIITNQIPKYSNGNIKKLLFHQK

[2] = phase I and phase II clinical trials; cited from earlier work

Compound: CC#C[C@]1(O)CC[C@H]2[C@@H]3CCC4=CC(=O)CCC4=C3[C@@H](c3ccc4c(c3)OCO4)C[C@@]21C [ORG 34517, (11β,17β)-11-(1,3-benzodioxol-5-yl)-17-hydroxy-17-(1-propynyl)estra-4,9-dien-3-one]
- cross-binding to other related steroidal hormone receptors [1]: without significant cross-binding
- GCR binding affinity (GCR): high
- significant toxicities and side effects [2]: none were identified
